Data as given in US20230338316A1, “ABBAPOLINS AS INHIBITORS AND DEGRADERS OF POLO-LIKE KINASES” (UNIVERSITY OF SOUTH CAROLINA, priority 2022, published 2023).

What was measured:
apoptosis = experiment: Cell cycle analysis and caspase apoptosis assay; assay type: cell-based; conditions: versus negative control
From the text: Disclosed small molecule inhibitors can also encourage apoptosis.

NCI-H522 = experiment: Single dose cell viability assay, NCI-H522; assay type: cell-based; conditions: NCI-H522 (NSCLC), single dose 10 μM
Description: (§1) Lead abbapolin compounds were tested in multiple cancer cell lines, including non-small cell lung cancer (NSCLC) cells, melanoma cells, colon cancer cells, central nervous system (CNS) cancer cells, prostate cancer cells, renal cancer cells, and breast cancer cells. Each of these cancer cells lines were sensitive to the lead abbapolin compounds in a cell viability assay, including 6184 (Table 3), 6277 (Table 4), 6279 (Table 5), 6355 (Table 6), 6359 (Table 7), 6369 (Table 8), and 6421 (Table 9).

CCRF-CEM = experiment: Single dose cell viability assay, CCRF-CEM; assay type: cell-based; conditions: CCRF-CEM (Leukemia), single dose 10 μM
Description: as §1

PLK1 [1] = target: T1, PLK1 (Homo sapiens, UniProt P53350); experiment: PLK1 degradation in SH-SY5Y cells; assay type: cell-based; set-up: endogenous in cells
T1 sequence (P53350 whole entry): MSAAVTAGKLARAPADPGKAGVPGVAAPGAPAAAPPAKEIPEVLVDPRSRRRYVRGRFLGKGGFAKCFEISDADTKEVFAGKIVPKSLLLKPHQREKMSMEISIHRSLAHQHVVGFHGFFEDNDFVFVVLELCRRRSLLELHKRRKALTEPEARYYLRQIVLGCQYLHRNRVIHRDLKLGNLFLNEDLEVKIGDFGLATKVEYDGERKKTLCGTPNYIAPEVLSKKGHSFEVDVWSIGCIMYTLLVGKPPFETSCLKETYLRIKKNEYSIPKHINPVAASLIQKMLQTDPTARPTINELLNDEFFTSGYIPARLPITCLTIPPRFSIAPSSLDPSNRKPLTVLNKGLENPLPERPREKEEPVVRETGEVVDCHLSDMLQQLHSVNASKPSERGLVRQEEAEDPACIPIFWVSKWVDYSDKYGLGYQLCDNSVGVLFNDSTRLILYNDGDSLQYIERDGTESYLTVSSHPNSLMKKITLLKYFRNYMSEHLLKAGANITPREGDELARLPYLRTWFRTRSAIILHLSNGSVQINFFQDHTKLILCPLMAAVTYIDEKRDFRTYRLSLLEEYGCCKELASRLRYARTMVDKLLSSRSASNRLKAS
Description: Abbapolin compounds activity was evaluated in neuroblastoma cells. […] Further, abbapolins induced PLK1 degradation in SH-SY5Y cells (FIG. 14-16).

UO-31 = experiment: Single dose cell viability assay, UO-31; assay type: cell-based; conditions: UO-31 (Renal), single dose 10 μM
Description: as §1

MOLT-4 = experiment: Single dose cell viability assay, MOLT-4; assay type: cell-based; conditions: MOLT-4 (Leukemia), single dose 10 μM
Description: as §1

[2] = test system: PC3 prostate cancer xenografts; experiment: PC3 prostate cancer xenograft study; assay type: in vivo, athymic nude mice
Description: The efficacy of promising abbapolin compounds were tested in multiple cancer cell lines. […] To do so, athymic nude mice were injected in their flanks with 2.7×10^6 PC3 prostate cancer cells. After the tumors established at 13 days, 5-8 mice per group were treated with 6359 and 6369 daily for 5 days (M-F) for a total of 15 days. […] This is in agreement with the PLK1 degradation in the xenograft tumor.

RPMI-8226 = experiment: Single dose cell viability assay, RPMI-8226; assay type: cell-based; conditions: RPMI-8226 (Leukemia), single dose 10 μM
Description: as §1

PLK1 [3] = target: T1, PLK1; experiment: PLK1 degradation in HeLa cells; assay type: cell-based; set-up: endogenous in cells; conditions: HeLa cell line, 24, 48 and 72 hours
Description: For example, PC3 cells were treated with varying dosages of abbapolin 6369, and percent of PLK1 degradation was measured at 24 hours (FIGS. 8A-8B). HeLa cells were treated with 25 μM abbapolin 6369, and time points shown in the assay were 24 hours, 48 hours, and 72 hours (FIGS. 9A-9B). PC3 cells were treated with varying dosages of abbapolin 6329, and percent of PLK1 degradation was measured at 24 hours (FIGS. […]). HeLa cells were treated with varying dosages of abbapolin 6329, and time points shown in the assay were 24 hours, 48 hours, and 72 hours (FIGS. 11A-11B).

HOP-92 = experiment: Single dose cell viability assay, HOP-92; assay type: cell-based; conditions: HOP-92 (NSCLC), single dose 10 μM
Description: as §1

[4] = test system: PC3 prostate cancer cells; experiment: MTT cell viability assay, PC3; assay type: cell-based; conditions: MTT, 72 hours
Description: PC3 prostate cancer cells were maintained in DMEM (Invitrogen™, Carlsebad, CA) supplemented with 10% FBS or Corning® Nu-serum™(BD™ Biosciences, Franklin Lakes, NJ) and 1% penicillin/streptomycin (Invitrogen™) in a humidified incubator and 5% CO2 at 37° C.
Exponentially growing cells were plated in 96-well dishes. Dose response curves were used to treat cells for 72 hours with inhibitors. Following the three-day treatment, cell viability was measured using the MTT (3-(4,5-dimethylthiazol-2-yl)-2,5-diphenyltetrazolium bromide) colorimetric assay. Cells were incubated for 3 hours with MTT allowing viable cells to metabolize the tetrazolium dye to a purple colored solution. Absorbance measurements (595 nm) were quantified using a DTX 880 plate reader and IC50 values were generated for FLIPs.

Substance: 3-(4-octylbenzamido)phenyl phosphate [compound 6369]
- levels of apoptosis (apoptosis): high levels of apoptosis
- Cells Remaining (%) (NCI-H522): 33.06%
- Cells Remaining (%) (CCRF-CEM): 24.97%
- PLK1 degradation (PLK1 [1]): degradation of PLK1
- Cells Remaining (%) (UO-31): 46.64%
- Cells Remaining (%) (MOLT-4): 58.19%
- growth of PC3 tumors ([2]; 6359 100 mg/kg oral gavage, 6369 40 mg/kg IP, daily 5 days (M-F), total 15 days): slow the growth of PC3 tumors
- PLK1 loss in the xenograft tumor ([2]; isolated PC3 xenograft tumors): significantly more PLK1 loss compared to PBS and 6359
- Cells Remaining (%) (RPMI-8226): 39.13%
- PLK1 degradation (PLK1 [3]): degradation of PLK1
- Cells Remaining (%) (HOP-92): 43.19%
- IC50 [4]: 2.3 ± 0.9 µM
